Data as given in patent US4801456A, “Growth hormone-releasing factor analogs” (International Minerals & Chemical Corp., priority 1987, dated 1989).
Square brackets hold non-standard residues; d marks the D form. Peptide text beside a SMILES is read from it. Nle = CCCC[C@H](N)C(=O)O

Test system: rat pituitary cells in tissue culture
Test: Bioassay of hGRF analogs: GH release from cultured pituitary cells
Assay type: cell-based
Conditions: for Dose Needed to Release 2.01 μg/ml of GH (ED50 value for hGRF) / Maximum GH Released / Relative Maximum Activity (% of hGRF): from curves generated by ALLFIT; for GH release at dosages comparable to native hGRF: referring to Table 1; for Potency: (ED50 of hGRF)/(Dose required to give same response as ED50 of hGRF): relative to hGRF(1-44)-NH2 = 100
From the text: The assay for biological activity, which is based on the ability to stimulate release of growth hormone in rat pituitary cells in tissue culture, has been described in detail (Culler, M. D.; Kenjo, T.: Obara, N.; Arimuar, A., Stimulation of cAMP. Accumulation by Human Pancreatic GH-Releasing Factor-(1-44). Am. J. Physiol. 1984, 247 (Endocrinol.Metab.10), E609-E615.
ALLFIT, the 4-parameter logistic curve fitting program available from the Biomedical Computer Technology Information Center, Vanderbilt Medical Center, Nashville TN, was used to determine ED50 and maximal stimulated values from the data. In several instances, the amount of GH released reached a maximum value and decreased with further increasing doses of the hGRF analogs. To simplify the data analysis, these values were not used in the calculations. The calculated maximal responses, the doses of the analog required to release the amount of GH released at the ED50 of the standard (hGRF) and the potencies of the analogs relative to hGRF, are given in Table 2. Generally all novel analogs were fully active and were able to stimulate the release of growth hormone with maximal values of GH release being within 80% of the value for natural hGRF.

Structure (SMILES)	GH Released (mean ± (S.E.)) (Dose 1 × 10^-6 M)	GH Released (mean ± (S.E.)) (Dose 1 × 10^-7 M)	GH Released (mean ± (S.E.)) (Dose 1 × 10^-8 M)	GH Released (mean ± (S.E.)) (Dose 1 × 10^-9 M)	GH Released (mean ± (S.E.)) (Dose 1 × 10^-10 M)	GH Released (mean ± (S.E.)) (Dose 1 × 10^-11 M)	Dose Needed to Release 2.01 μg/ml of GH (ED50 value for hGRF) [nM]	Maximum GH Released [µg/mL]	Relative Maximum Activity (% of hGRF) [%]	GH release at dosages comparable to native hGRF	Potency: (ED50 of hGRF)/(Dose required to give same response as ED50 of hGRF) [%]	Potency: (ED50 of hGRF)/(Dose required to give same response as ED50 of hGRF) (listed as [Asn^3,Asp^8,Asn^25,Nle^27 ]-hGRF(1-31)--NH2) [%]	Potency: (ED50 of hGRF)/(Dose required to give same response as ED50 of hGRF) (listed as [Asn^3,Asp^8,Nle^27 ]-hGRF(1-31)--NH2) [%]	times more potent than hGRF(1-44)--NH2 (on a molar basis) [times]
CCCC[C@H](NC(=O)[C@@H](NC(=O)[C@H](CC(N)=O)NC(=O)[C@H](CCC(N)=O)NC(=O)[C@H](CC(C)C)NC(=O)[C@H](CC(C)C)NC(=O)[C@H](CCCCN)NC(=O)[C@H](CCCNC(=N)N)NC(=O)[C@H](C)NC(=O)[C@H](CO)NC(=O)[C@H](CC(C)C)NC(=O)[C@H](CCC(N)=O)NC(=O)CNC(=O)[C@H](CC(C)C)NC(=O)[C@@H](NC(=O)[C@H](CCCCN)NC(=O)[C@H](CCCNC(=N)N)NC(=O)[C@H](Cc1ccc(O)cc1)NC(=O)[C@H](CO)NC(=O)[C@H](CC(N)=O)NC(=O)[C@@H](NC(=O)[C@H](Cc1ccccc1)NC(=O)[C@@H](NC(=O)[C@H](C)NC(=O)[C@H](CC(N)=O)NC(=O)[C@H](C)NC(=O)[C@@H](N)Cc1ccc(O)cc1)[C@@H](C)CC)[C@@H](C)O)C(C)C)[C@@H](C)CC)C(=O)N[C@@H](CO)C(=O)N[C@@H](CCCNC(=N)N)C(=O)N[C@@H](CCC(N)=O)C(=O)N[C@@H](CCC(N)=O)C(N)=O [[Asn^3,Asn^25,Nle^27], [Asn^3,Asn^25,Nle^27]-hGRF(1-31)--NH2] (H-YANAIFTNSYRKVLGQLSARKLLQNI[Nle]SRQQ-NH2)	2.96 (0.11) μg/mL	3.30 (0.08) μg/mL	3.21 (0.13) μg/mL	1.58 (0.07) μg/mL	0.81 (0.06) μg/mL	0.65 (0.03) μg/mL	1.54	3.33	101	induced GH release in dosages comparable to those for native hGRF	21	–	–	–
CCCC[C@H](NC(=O)[C@@H](NC(=O)[C@H](CC(N)=O)NC(=O)[C@H](CCC(N)=O)NC(=O)[C@H](CC(C)C)NC(=O)[C@H](CC(C)C)NC(=O)[C@H](CCCCN)NC(=O)[C@H](CCCNC(=N)N)NC(=O)[C@H](C)NC(=O)[C@H](CO)NC(=O)[C@H](CC(C)C)NC(=O)[C@H](CCC(N)=O)NC(=O)CNC(=O)[C@H](CC(C)C)NC(=O)[C@@H](NC(=O)[C@H](CCCCN)NC(=O)[C@H](CCCNC(=N)N)NC(=O)[C@H](Cc1ccc(O)cc1)NC(=O)[C@H](CO)NC(=O)[C@H](CC(=O)O)NC(=O)[C@@H](NC(=O)[C@H](Cc1ccccc1)NC(=O)[C@@H](NC(=O)[C@H](C)NC(=O)[C@H](CC(N)=O)NC(=O)[C@H](C)NC(=O)[C@@H](N)Cc1ccc(O)cc1)[C@@H](C)CC)[C@@H](C)O)C(C)C)[C@@H](C)CC)C(=O)N[C@@H](CO)C(=O)N[C@@H](CCCNC(=N)N)C(=O)N[C@@H](CCC(N)=O)C(=O)N[C@@H](CCC(N)=O)C(N)=O [[Asn^3,Asp^8,Asn^25,Nle^27], [Asn^3,Asp^8,Asn^25,Nle^27]-hGRF(1-31)--NH2] (H-YANAIFTDSYRKVLGQLSARKLLQNI[Nle]SRQQ-NH2)	3.12 (0.12) μg/mL	2.94 (0.11) μg/mL	1.88 (0.07) μg/mL	0.75 (0.01) μg/mL	0.61 (0.05) μg/mL	0.60 (0.02) μg/mL	12.05	3.11	94	did not induce GH release at dosages comparable to native hGRF	3	5	–	–
CCCC[C@H](NC(=O)[C@@H](NC(=O)[C@H](CC(=O)O)NC(=O)[C@H](CCC(N)=O)NC(=O)[C@H](CC(C)C)NC(=O)[C@H](CC(C)C)NC(=O)[C@H](CCCCN)NC(=O)[C@H](CCCNC(=N)N)NC(=O)[C@H](C)NC(=O)[C@H](CO)NC(=O)[C@H](CC(C)C)NC(=O)[C@H](CCC(N)=O)NC(=O)CNC(=O)[C@H](CC(C)C)NC(=O)[C@@H](NC(=O)[C@H](CCCCN)NC(=O)[C@H](CCCNC(=N)N)NC(=O)[C@H](Cc1ccc(O)cc1)NC(=O)[C@H](CO)NC(=O)[C@H](CC(=O)O)NC(=O)[C@@H](NC(=O)[C@H](Cc1ccccc1)NC(=O)[C@@H](NC(=O)[C@H](C)NC(=O)[C@H](CC(N)=O)NC(=O)[C@H](C)NC(=O)[C@@H](N)Cc1ccc(O)cc1)[C@@H](C)CC)[C@@H](C)O)C(C)C)[C@@H](C)CC)C(=O)N[C@@H](CO)C(=O)N[C@@H](CCCNC(=N)N)C(=O)N[C@@H](CCC(N)=O)C(=O)N[C@@H](CCC(N)=O)C(N)=O [[Asn^3,Asp^8,Nle^27], [Asn^3,Asp^8,Nle^27]-hGRF(1-31)--NH2] (H-YANAIFTDSYRKVLGQLSARKLLQDI[Nle]SRQQ-NH2)	2.74 (0.19) μg/mL	3.30 (0.27) μg/mL	2.27 (0.07) μg/mL	1.04 (0.05) μg/mL	0.58 (0.04) μg/mL	0.65 (0.04) μg/mL	6.74	3.53	107	did not induce GH release at dosages comparable to native hGRF	5	–	3	–
CCCC[C@H](NC(=O)[C@@H](NC(=O)[C@H](CC(=O)O)NC(=O)[C@H](CCC(N)=O)NC(=O)[C@H](CC(C)C)NC(=O)[C@H](CC(C)C)NC(=O)[C@H](CCCCN)NC(=O)[C@H](CCCNC(=N)N)NC(=O)[C@H](C)NC(=O)[C@H](CO)NC(=O)[C@H](CC(C)C)NC(=O)[C@H](CCC(N)=O)NC(=O)CNC(=O)[C@H](CC(C)C)NC(=O)[C@@H](NC(=O)[C@H](CCCCN)NC(=O)[C@H](CCCNC(=N)N)NC(=O)[C@H](Cc1ccc(O)cc1)NC(=O)[C@H](CO)NC(=O)[C@H](CC(N)=O)NC(=O)[C@@H](NC(=O)[C@H](Cc1ccccc1)NC(=O)[C@@H](NC(=O)[C@H](C)NC(=O)[C@H](CC(N)=O)NC(=O)[C@H](C)NC(=O)[C@@H](N)Cc1ccc(O)cc1)[C@@H](C)CC)[C@@H](C)O)C(C)C)[C@@H](C)CC)C(=O)N[C@@H](CO)C(=O)N[C@@H](CCCNC(=N)N)C(=O)N[C@@H](CCC(N)=O)C(=O)N[C@@H](CCC(N)=O)C(N)=O [[Asn^3,Nle^27], [Asn^3, Nle^27]-hGRF(1-31)--NH2] (H-YANAIFTNSYRKVLGQLSARKLLQDI[Nle]SRQQ-NH2)	3.22 (0.16) μg/mL	3.05 (0.09) μg/mL	2.90 (0.12) μg/mL	2.40 (0.06) μg/mL	0.97 (0.01) μg/mL	0.67 (0.08) μg/mL	0.58	3.09	93	induced GH release in dosages comparable to those for native hGRF	55	–	–	–
CCCC[C@H](NC(=O)[C@@H](NC(=O)[C@H](CC(N)=O)NC(=O)[C@H](CCC(N)=O)NC(=O)[C@H](CC(C)C)NC(=O)[C@H](CC(C)C)NC(=O)[C@H](CCCCN)NC(=O)[C@H](CCCNC(=N)N)NC(=O)[C@H](C)NC(=O)[C@H](CO)NC(=O)[C@H](CC(C)C)NC(=O)[C@H](CCC(N)=O)NC(=O)CNC(=O)[C@H](CC(C)C)NC(=O)[C@@H](NC(=O)[C@H](CCCCN)NC(=O)[C@H](CCCNC(=N)N)NC(=O)[C@H](Cc1ccc(O)cc1)NC(=O)[C@H](CO)NC(=O)[C@H](CC(N)=O)NC(=O)[C@@H](NC(=O)[C@H](Cc1ccccc1)NC(=O)[C@@H](NC(=O)[C@H](C)NC(=O)[C@H](CC(=O)O)NC(=O)[C@H](C)NC(=O)[C@@H](N)Cc1ccc(O)cc1)[C@@H](C)CC)[C@@H](C)O)C(C)C)[C@@H](C)CC)C(=O)N[C@@H](CO)C(=O)N[C@@H](CCCNC(=N)N)C(=O)N[C@@H](CCC(N)=O)C(=O)N[C@@H](CCC(N)=O)C(N)=O [[Asn^25,Nle^27], [Asn^25,Nle^27]-hGRF(1-31)--NH2] (H-YADAIFTNSYRKVLGQLSARKLLQNI[Nle]SRQQ-NH2)	3.22 (0.24) μg/mL	3.22 (0.09) μg/mL	3.10 (0.12) μg/mL	3.12 (0.15) μg/mL	1.84 (0.06) μg/mL	0.72 (0.05) μg/mL	0.12	3.18	96	induced GH release in dosages comparable to those for native hGRF	267	–	–	2.7
